Reference: US20200255884A1, “METHOD OF DETECTION OF DNA END(S) AND ITS USE” (INTODNA SP. Z O.O., priority 2017, published 2020)

Test system: HeLa 21-4 cells
Test: Procedure 1 on HeLa cells in suspension with subsequent isolation of chromatin, fluorescence spectrophotometer
Type: cell-based
Conditions: H2O2 4 mM, 30 minutes
Method: In this Example, HeLa 21-4 cells (obtained from P.R. Cook, University of Oxford) were seeded on 6-well plates and cultured for 48 hours in DMEM supplemented with 10% FBS until the culture reached 100% confluency (number of cells: 1.2×10^6 per 1 well). Next, cells were treated with the DNA damaging agent H2O2 which was added directly to the growth medium (final concentration: 4 mM). The cells were incubated at 37° C. for 30 minutes in the standard cell culture incubator with CO2 level control. The control, untreated cells and the damaged cells (H2O2) were then harvested using 0.5 ml trypsin and transferred to 1.5 ml eppendorf tubes. Afterwards, trypsin was inactivated by adding 0.5 ml DMEM supplemented with 10% FBS. Subsequently, cells were spun down in the table top centrifuge (Eppendorf centrifuge, 5417 C, rotor: F45-30-11) (1700 rpm, 5 minutes, room temperature). The cell pellet was resuspended in PBS and again spun down (this washing step was repeated twice). When the supernatant PBS was discarded, cells were resuspended in the remaining droplet of PBS. Subsequently, ice-cold 70% Et(OH) was added dropwise, and cells were incubated in Et(OH) for 30 minutes in −20° C. Then, the cells were treated according to Procedure 1, wherein steps 1, 3, 4, 9 were omitted, and every washing step and every incubation were followed by centrifugation. BrdU was linked to free ends of DNA using TdT enzyme using APO-BRDU kit (Phoenix Flow Systems, AU: 1001) according to the supplier's instructions. […] The fluorescence signal was generated using Duolink® In Situ Detection Reagents Green (Sigma, DUO92014). […]
The level of fluorescence intensity of the cell extract obtained from untreated control cells and the H2O2 damaged cells was measured using a fluorescence spectrophotometer (Hitachi F-7000 supplied with Xe lamp). The fluorescence intensity was measured for 30 s (excitation 480 nm, emission 520 nm).

OO [H2O2]
fluorescence intensity per 1 ng of DNA (cell extract): 3.2±0.3×10^−4 a.u.
flurescence signal per 1 ng of DNA (cell extract): 3.2 ± 0.3 × 10^−4 a.u./ng
fluorescence signal (extract volume 40 μl, excitation 480 nm, emission 520 nm): 0.046 ± 0.005 a.u.
